Measured values reported in PubChem BioAssay (NCI).
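Briefly, cells in 96-well plates were exposed to five compound concentrations for 48 h, and endpoints were estimated by linear interpolation. Here, GI50 denotes the concentration required for 50% inhibition of growth. At the TGI there is no net growth.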

Experiments:
Experiment in all cases: inhibition of tumour cell growth, NCI panel, 48 h
[1] = test system: 786-0 renal
[2] = test system: A498 renal
[3] = test system: A549 NSCLC
[4] = test system: ACHN renal
[5] = test system: BT-549 breast
[6] = test system: CAKI-1 renal
[7] = test system: CCRF-CEM leukemia
[8] = test system: COLO 205 colon
[9] = test system: DU-145 prostate
[10] = test system: EKVX NSCLC
[11] = test system: HCC-2998 colon
[12] = test system: HCT-116 colon
[13] = test system: HCT-15 colon
[14] = test system: HL-60(TB) leukemia
[15] = test system: HOP-62 NSCLC
[16] = test system: HOP-92 NSCLC
[17] = test system: HS 578T breast
[18] = test system: HT29 colon
[19] = test system: IGROV1 ovarian
[20] = test system: K-562 leukemia
[21] = test system: KM12 colon
[22] = test system: LOX IMVI melanoma
[23] = test system: M14 melanoma
[24] = test system: MALME-3M melanoma
[25] = test system: MCF7 breast
[26] = test system: MDA-MB-231 breast
[27] = test system: MDA-MB-435
[28] = test system: MOLT-4 leukemia
[29] = test system: NCI-H226 lung
[30] = test system: NCI-H23 lung
[31] = test system: NCI-H460 lung
[32] = test system: NCI-H522 lung
[33] = test system: NCI/ADR-RES ovarian
[34] = test system: OVCAR-3 ovarian
[35] = test system: OVCAR-4 ovarian
[36] = test system: OVCAR-5 ovarian
[37] = test system: OVCAR-8 ovarian
[38] = test system: PC-3 prostate
[39] = test system: RPMI-8226 leukemia
[40] = test system: RXF 393 renal
[41] = test system: SF-268 CNS
[42] = test system: SF-295 CNS
[43] = test system: SF-539 CNS
[44] = test system: SK-MEL-2 melanoma
[45] = test system: SK-MEL-28 melanoma
[46] = test system: SK-MEL-5 melanoma
[47] = test system: SK-OV-3 ovarian
[48] = test system: SN12C renal
[49] = test system: SNB-19 CNS
[50] = test system: SNB-75 CNS
[51] = test system: SW-620 colon
[52] = test system: T-47D breast
[53] = test system: TK-10 renal
[54] = test system: U251 CNS
[55] = test system: UACC-257 melanoma
[56] = test system: UACC-62 melanoma
[57] = test system: UO-31 renal

## O=C(NC1CCCCC1)OCc1c(COC(=O)NC2CCCCC2)c(-c2ccc(Cl)c(Cl)c2)n2c1CCC2
[1]
  GI50: 3.26 µM
  TGI: 10.7 µM
[2]
  GI50: 1.59 µM
  TGI: 3.32 µM
[3]
  GI50: 7.47 µM
  TGI: 94.2 µM
[4]
  GI50: 3.04 µM
  TGI: 41.6 µM
[5]
  GI50: 3.53 µM
  TGI: 14.2 µM
[6]
  GI50: 2.35 µM
  TGI: > 100 µM
[7]
  GI50: 3.21 µM
  TGI: > 100 µM
[8]
  GI50: 4.2 µM
  TGI: 16.6 µM
[9]
  GI50: 3.72 µM
  TGI: 20.9 µM
[10]
  GI50: 9.79 µM
  TGI: 94.4 µM
[11]
  GI50: 10.5 µM
  TGI: 23 µM
[12]
  GI50: 3.72 µM
  TGI: 15.2 µM
[13]
  GI50: 5.56 µM
  TGI: 43.2 µM
[14]
  GI50: 2.24 µM
  TGI: > 100 µM
[15]
  GI50: 4.57 µM
  TGI: 21 µM
[16]
  GI50: 1.94 µM
  TGI: 12.5 µM
[17]
  GI50: 3.72 µM
  TGI: 21.4 µM
[18]
  GI50: 4.97 µM
  TGI: 71.4 µM
[19]
  GI50: 5.62 µM
  TGI: > 100 µM
[20]
  GI50: 4.83 µM
  TGI: > 100 µM
[21]
  GI50: 11.9 µM
  TGI: 29.3 µM
[22]
  GI50: 2.98 µM
  TGI: 16.4 µM
[23]
  GI50: 4.17 µM
  TGI: 16.3 µM
[24]
  GI50: 5.92 µM
  TGI: 22.7 µM
[25]
  GI50: 3.83 µM
  TGI: 27.9 µM
[26]
  GI50: 5.6 µM
  TGI: 50.7 µM
[27]
  GI50: 8.23 µM
  TGI: 28.8 µM
[28]
  GI50: 2.6 µM
  TGI: > 100 µM
[29]
  GI50: 2.51 µM
  TGI: 22.4 µM
[30]
  GI50: 4.35 µM
  TGI: 21 µM
[31]
  GI50: 1.19 µM
  TGI: 14.1 µM
[32]
  GI50: 3.01 µM
  TGI: 11.8 µM
[33]
  GI50: 4.24 µM
  TGI: 18.6 µM
[34]
  GI50: 5.32 µM
  TGI: 22.3 µM
[35]
  GI50: 3.42 µM
  TGI: 62.9 µM
[36]
  GI50: 5.19 µM
  TGI: 44.3 µM
[37]
  GI50: 4.3 µM
  TGI: 32.3 µM
[38]
  GI50: 6.05 µM
  TGI: 29.3 µM
[39]
  GI50: 4.55 µM
  TGI: 29 µM
[40]
  GI50: 2.87 µM
  TGI: 9.36 µM
[41]
  GI50: 3.79 µM
  TGI: 21.3 µM
[42]
  GI50: 3.38 µM
  TGI: 29.1 µM
[43]
  GI50: 3.06 µM
  TGI: 13.7 µM
[44]
  GI50: 3.72 µM
  TGI: 12.7 µM
[45]
  GI50: 14.2 µM
  TGI: 45.3 µM
[46]
  GI50: 7.06 µM
  TGI: 20.8 µM
[47]
  GI50: 2.58 µM
  TGI: 11.8 µM
[48]
  GI50: 3.58 µM
  TGI: > 100 µM
[49]
  GI50: 5.79 µM
  TGI: 47.6 µM
[50]
  GI50: 4.19 µM
  TGI: 25 µM
[51]
  GI50: 3.89 µM
  TGI: 22.6 µM
[52]
  GI50: 3.83 µM
  TGI: 19.5 µM
[53]
  GI50: 3.72 µM
  TGI: 31.7 µM
[54]
  GI50: 4.43 µM
  TGI: 22.8 µM
[55]
  GI50: 10.8 µM
  TGI: 37.4 µM
[56]
  GI50: 2.37 µM
  TGI: 12.9 µM
[57]
  GI50: 3.17 µM
  TGI: 16.2 µM
